Reference: US20220168299A1, “PHARMACEUTICAL COMPOSITION COMPRISING TBN, OR SALT OR HYDRATE THEREOF, AND PREPARATION METHOD THEREOF” (GUANGZHOU MAGPIE PHARMACEUTICALS CO., LTD., priority 2019, published 2022)
Several values for one entry are separate records, joined by “and”; a condition that tells them apart may be missing. Equal entries are not always repeated. Where two headings read alike, the source gives them in different places.

Tests used:
[1] = Bioavailability test: pharmacokinetic study of TBN (API) and enteric-coated tablets in beagle dogs; format: in vivo; conditions: 175 mg, oral gavage; for MRT last: read-out: MRT (0-t); for Vd/F: read-out: Vz/F
Experimental: (10) Bioavailability test: Pharmacokinetic study of TBN (API) and enteric-coated tablets in beagle dogs
6 beagle dogs were randomly divided into 2 groups, each group having 3 animals. Each test animal was given with TBN (API) at a dosage of 175 mg, or 1 enteric-coated tablet with a specification of 175 mg prepared following the method in Example 17 by oral gavage. The blood sample was collected at various times (0.08, 0.25, 0.5, 1, 1.5, 2, 4, 8, 12, and 24 h), and analyzed by LC-MS/MS. A drug concentration-time curve was plotted to calculate the pharmacokinetic parameters.

[2] = Pharmacokinetic study of TBN enteric-coated tablets (Example 25 method) and intravenous TBN in beagle dogs; format: in vivo
Experimental: (11) Pharmacokinetic study of TBN enteric-coated tablets prepared following the method described in Example 25
24 beagle dogs (male:female 1:1) were randomly divided into 4 groups (each group having 3 female and 3 male animals). Animals in group A were injected intravenously with a TBN (API) solution at a dosage of 6 mg·kg^−1, and animals in groups B and D were respectively given with TBN enteric-coated tablets at a dosage of 100 and 900 mg·animal^−1 by oral gavage. Blood was taken from the animals in group A before and 0.083, 0.25, 0.5, 1, 2, 4, 6, 8 and 24 h after administration; and blood was taken from the animals in group B and D before and 0.25, 0.5, 1, 2, 4, 6, 8, 12 and 24 h after administration. Animals in group C were given TBN enteric-coated tablets at a dosage of 300 mg·animal^−1 for seven consecutive days. Blood was taken from the animals in group C before and 0.25, 0.5, 1, 2, 4, 6, 8, 12 and 24 h after the first and seventh administration and before and 2 h after the second to sixth administration.
Detection and analysis by LC-MS/MS were performed and the pharmacokinetic parameters were calculated.

[3] = beagle, dog, blood, po, Average of 3 animals
[4] = beagle, dog, blood, po, individual animal
[5] = individual animal, listed as TBN (API)
[6] = both sexes, dog, blood, beagle dogs, intravenous 6 mg · kg^−1, Mean

AUC(0-inf) [1, 3]: 9580 ng·h/mL | AUC(0-t) ([1]; beagle, dog, blood, po, Average of 3 animals, read-out: AUC(0-t)): 9580 ng·h/mL | Cmax ([1]; beagle, dog, blood, po, Average of 3 animals, read-out: Cmax): 10100 ng/mL | MRT last [1, 3]: 49.8 min | Vd/F [1, 3]: 1.22 L/kg | MRT last [1, 4]: 37.2 min | Vd/F [1, 4]: 1.39 L/kg | Tmax ([1]; dog, blood, individual animal): 15 min | CLz/F ([1]; Average of 3 animals): 30.2 mL/min/kg | T½z ([1]; Average of 3 animals): 31.2 min | MRT (0-t) [1, 5]: 53.4 min and 58.8 min | T½z [1, 5]: 22.8 min and 29.4 min and 42.6 min | AUC(0-inf) [2, 6]: 3560 ng·h/mL | C0 [2, 6]: 12100 ng/mL | clearance [2, 6]: 29.1 mL/min/kg | half-life [2, 6]: 17.5 min | MRT inf ([2]; both sexes, dog, blood, beagle dogs, intravenous 6 mg · kg^−1, Mean, read-out: MRT0-inf): 17.9 min | Vd ([2]; both sexes, dog, blood, beagle dogs, intravenous 6 mg · kg^−1, Mean, read-out: VDSS): 0.503 L/kg | difference in exposure levels (C0, AUC0-t) between male and female beagle dogs ([2]; intravenous administration): no significant difference
SMILES: Cc1nc(C)c(/C=[N+](\[O-])C(C)(C)C)nc1C [TBN, (cis)-2-methyl-N-[(3,5,6-trimethylpyrazin-2-yl)methylene)2-propylamine oxide]
AUC (0-∞) [1, 5]: 5294.6 ng·h/mL and 6935.3 ng·h/mL and 16503.3 ng·h/mL | AUC(0-t) [1, 5]: 5290.7 ng·h/mL and 6935.2 ng·h/mL and 16503.2 ng·h/mL | CLz/F [1, 5]: 42.8 mL/min/kg and 33.7 mL/min/kg and 14 mL/min/kg | Cmax [1, 5]: 7280.25 ng/mL and 7291.11 ng/mL and 15646.14 ng/mL
